Experimental findings from patent US8389511B2, “Bicyclic heterocyclic derivative” (Dainippon Sumitomo Pharma Co., Ltd., priority 2007, dated 2013) are described below.

Counter-ions that a name gives are not always drawn.

The experiment concerns the target T1, Recombinant human renin (Homo sapiens, UniProt P00797).
T1 sequence (P00797 67-406): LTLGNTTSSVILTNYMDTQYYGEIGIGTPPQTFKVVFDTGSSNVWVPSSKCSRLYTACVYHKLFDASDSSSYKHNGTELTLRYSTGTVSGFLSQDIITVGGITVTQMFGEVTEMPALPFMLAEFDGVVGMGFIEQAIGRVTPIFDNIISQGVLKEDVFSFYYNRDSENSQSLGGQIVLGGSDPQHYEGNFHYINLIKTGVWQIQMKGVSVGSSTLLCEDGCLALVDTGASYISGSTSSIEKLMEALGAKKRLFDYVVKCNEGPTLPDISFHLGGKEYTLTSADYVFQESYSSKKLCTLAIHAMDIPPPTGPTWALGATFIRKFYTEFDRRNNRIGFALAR
The experiment in a line: In vitro renin inhibitory activity assay (fluorescence, EDANS/DABCYL peptide substrate). Format: biochemical. Particulars: recombinant human renin (50 ng), 0.1M HEPES buffer pH 7.4, substrate 4 μM, 37° C., one hour, fluorescence 340/500 nm. The procedure: In Vitro Renin Inhibitory Activity Assay
Recombinant human renin (50 ng) was reacted in 0.1M HEPES buffer (pH 7.4) containing 0.1M NaCl, 1 mM EDTA and 0.1 mg/mL BSA together with a substrate and a test compound at 37° C. for one hour. As the substrate, Arg-Glu(EDANS)-[…]DABCYL)-Arg or DABCYL-γ-Abu-[…]EDANS was added in such an amount so that the final concentration thereof became 4 μM. The elevated fluorescence intensity at the exciting wavelength 340 nm and the fluorescence wavelength 500 nm was measured by a fluorescence plate reader.

Regarding `COCC(O)CCN1C(=O)C(C)(C)Oc2cc(C(F)(F)F)c(C(=O)N(C(C)C)C3CCCNC3)cc21` (centres unmarked) [Example 251], the IC50 turned out to be 23.8 nM.

Take `CCC(=O)NCCn1c(=O)n(CC)c2cc(C(F)(F)F)c(C(=O)N(C(C)C)[C@@H]3CCCNC3)cc21` [Example 262]: the IC50 came to 30 nM.

Turning to `COCCCCN1C(=O)C(C)(C)Oc2cc(C#N)c(C(=O)N(C(C)C)[C@@H]3CCCNC3)cc21` [Example 162], the IC50 is 4 nM.

As to `CCC(=O)NCCN1C(=O)C(C)(C)Oc2cc(C(F)(F)F)c(C(=O)N(C3CCC3)[C@@H]3CCCNC3)cc21` [Example 202], the IC50 worked out at 1.3 nM.

`COCCCCN1C(=O)C(C2CCOCC2)Oc2cc(C(F)(F)F)c(C(=O)N(C(C)C)C3CCCNC3)cc21` (centres unmarked) [Example 205]: the half-maximal inhibitory concentration (IC50) was 17.4 nM.

For the molecule `COCCCCN1C(=O)C(C)(CO)Oc2cc(C(F)(F)F)c(C(=O)N(C(C)C)C3CCCNC3)cc21` (centres unmarked) [Example 217], the IC50 came out at 1.8 nM.

Regarding `CCC(=O)NCCN1C(=O)C(C)(c2cccc(OS(C)(=O)=O)c2)Oc2cc(C(F)(F)F)c(C(=O)N(C(C)C)C3CCCNC3)cc21` (centres unmarked) [Example 229], the IC50 came out at 0.3 nM.

Regarding `CCC(=O)NCCN1C(=O)C(C)(c2cc(C#N)ccc2F)Oc2cc(C(F)(F)F)c(C(=O)N(C(C)C)C3CCCNC3)cc21` (centres unmarked) [Example 228], the IC50 worked out at 1.5 nM.

In the case of `COCCCCN1C(=O)C(C)(C)c2cc(Cl)c(C(=O)N(C(C)C)[C@@H]3CCCNC3)cc21` [Example 254, 5-Chloro-3,3-dimethyl-N-isopropyl-1-(4-methoxybutyl)-2-oxo-N-[(3R)-piperidin-3-yl] indoline-6-carboxamide hydrochloride], the IC50 came out at 14 nM.

As to `COC(=O)NCCN1C(=O)C(C)(COc2ccccc2)Oc2cc(C(F)(F)F)c(C(=O)N(C(C)C)C3CCCNC3)cc21` (centres unmarked) [Example 209], the IC50 worked out at 2 nM.

Take `COCCCCN1C(=O)C(C)(COCCOC)Oc2cc(C(F)(F)F)c(C(=O)N(C(C)C)C3CCCNC3)cc21` (centres unmarked) [Example 212]: the IC50 is 1.7 nM.

On to `CCC(=O)NCCN1C(=O)C(C)(C)Oc2cc(C(F)(F)F)c(C(=O)N(CC)C3CNCCC3c3ccccc3)cc21` (centres unmarked) [Example 243], for which the IC50 amounted to 2.2 nM.

Consider `COC(=O)NCCN1C(=O)[C@](C)(c2cc(F)cc(F)c2)Oc2cc(Cl)c(C(=O)N(C(C)C)[C@@H]3CCCNC3)cc21` [Example 30], for which the IC50 came out at 0.8 nM.

Consider `COCC(=O)CCN1C(=O)C(C)(C)Oc2cc(C(F)(F)F)c(C(=O)N(C(C)C)C3CCCNC3)cc21` (centres unmarked) [Example 252], for which the half-inhibitory concentration (IC50) was found to be 1.5 nM.

Turning to `CCc1cc2c(cc1C(=O)N(C(C)C)[C@@H]1CCCNC1)N(CCCCOC)C(=O)C(C)(C)O2` [Example 79], the IC50 is 19.2 nM.

`COC(=O)NCCN1C(=O)[C@](C)(c2cc(F)cc(F)c2)Oc2cc(Br)c(C(=O)N(C(C)C)[C@@H]3CCCNC3)cc21` [Example 36]: the IC50 is 0.2 nM.

For `COC(=O)NCCN1C(=O)C(C)(COc2cccc(OC)c2)Oc2cc(C(F)(F)F)c(C(=O)N(C(C)C)C3CCCNC3)cc21` (centres unmarked) [Example 210], the IC50 stood at 1.2 nM.

Turning to `CCn1c(=O)n(CCCCOC)c2cc(C(=O)N(C(C)C)[C@@H]3CCCNC3)c(C(F)(F)F)cc21` [Example 261], the IC50 turned out to be 15 nM.

As for `CCc1cc2c(cc1C(=O)N(C(C)C)[C@@H]1CCCNC1)N(CCNC(=O)OC)C(=O)C(C)(C)O2` [Example 80], the IC50 is 4.6 nM.

In the case of `CCC(=O)NCCN1C(=O)C(C)(C)c2cc(Cl)c(C(=O)N(C(C)C)[C@@H]3CCCNC3)cc21` [Example 255, 5-Chloro-N-isopropyl-3,3-dimethyl-2-oxo-N-[(3R)-piperidin-3-yl]-1-[2-(propionylamino)ethyl]-indoline-6-carboxamide hydrochloride], the half-maximal inhibitory concentration (IC50) is 20 nM.

Consider `COCCCN1C(=O)C(C)(C)Oc2cc(Br)c(C(=O)N(C(C)C)[C@@H]3CCCNC3)cc21` [Example 1, 7-Bromo-N-isopropyl-4-(3-methoxypropyl)-2,2-dimethyl-3-oxo-N-[(3R)-piperidin-3-yl]-3,4-dihydro-2H-1,4-benzoxazine-6-carboxamide hydrochloride], for which the 50% inhibitory concentration (IC50) turned out to be 0.7 nM.

Turning to `COCCCN1C(=O)[C@@H](C)Oc2cc(C)c(C(=O)N(C(C)C)[C@@H]3CCCNC3)cc21` [Example 18], the IC50 worked out at 11 nM.

Turning to `CCOC(=O)COCC1(C)Oc2cc(C(F)(F)F)c(C(=O)N(C(C)C)C3CCCNC3)cc2N(CCCCOC)C1=O` (centres unmarked) [Example 216], the IC50 came out at 1.1 nM.

On to `COCCCCN1C(=O)[C@@H](C)Oc2cc(C(F)(F)F)c(C(=O)N(C(C)C)[C@@H]3CCCNC3)cc21` [Example 66], for which the IC50 was determined as 0.7 nM.

On to `COCCCCN1C(=O)C2(CCOCC2)Oc2cc(C)c(C(=O)N(C(C)C)[C@@H]3CCCNC3)cc21` [Example 48], for which the IC50 turned out to be 8.4 nM.

For `CCC(=O)NCCN1C(=O)C(C)(C)Oc2cc(F)c(C(=O)N(CC)[C@H]3CNCC[C@@H]3c3cccc(OC)c3)cc21` [Example 265], the IC50 was found to be 2.2 nM.

Consider `CCC(=O)NCCN1C(=O)C(C)(C)Oc2cc(C(F)(F)F)c(C(=O)N(C(C)C)C3CNCCC3c3cccc(-c4ccccc4)c3)cc21` (centres unmarked) [Example 238], for which the concentration for half-maximal inhibition (IC50) came to 39 nM.

As for `CCC(=O)NCCN1C(=O)C(C)(c2cccc(C#N)c2)Oc2cc(C(F)(F)F)c(C(=O)N(C(C)C)C3CCCNC3)cc21` (centres unmarked) [Example 224], the IC50 was 0.6 nM.

Regarding `COCCCCN1C(=O)C(C)(C)Oc2cc(C(F)(F)F)c(C(=O)N(C(C)C)C3CCNC3)cc21` (centres unmarked) [Example 201, N-Isopropyl-4-(4-methoxybutyl)-2,2-dimethyl-3-oxo-N-pyrrolidine-3-yl-7-(trifluoromethyl)-3,4-dihydro-2H-1,4-benzoxazine-6-carboxamide hydrochloride], the concentration for half-maximal inhibition (IC50) amounted to 82 nM.

As a reminder, the IC50 is the concentration that inhibits the measured activity by half.
